In patent US7071166B2, “Skin wound healing promoters” (Santen Pharmacetical Co., Ltd., priority 2000, dated 2006):
Where a SMILES comes first, the peptide text is derived from it.

Key:
[1] = test system: ear tissue pieces (epidermal cell layer); assay: Action on epidermal extension (cultured rat ear tissue pieces); format: cell-based, rats (Spraque-Dawley); conditions: for Extension length of epidermis: TCM 199 medium, cultured 24 hours, substance P or FGLM 20 μM, IGF-I 10 ng/ml, average of 12 samples; for Epidermal extension compared with control (in words): each drug used solely
Experimental: Excessive pentobarbital was administered to rats (Spraque-Dawley), and then ear tissue pieces of about 2×4 mm were prepared. Into a 60 mm Petri dish was put 18 ml of each TCM 199 culture medium containing each of test drugs in Table 1 [substance P, FGLM (SEQ ID NO: 2), IGF-I, substance P+IGF-I and FGLM (SEQ ID NO: 2)+IGF-I], and […] were added to each Petri dish (12 samples: three sections per group). The tissue pieces were cultured in a CO2 incubator (37° C.·5% CO2) for 24 hours, the tissue pieces were fixed with ethanol-acetic acid (volume ratio 95:5) to prepare three tissue sections per tissue piece according to the conventional method. The tissue sections were stained with hematoxylin-eosin, and then length of a epidermal cell layer having extended cut surfaces was measured. The tissue pieces were cultured under the same condition as mentioned above using a culture medium containing no test drug to prepare controls. The values in the table are the average of 12 samples.

[2] = test system: full-thickness wounds on back skin of non-diabetes rats (non DM Rat); assay: Action on skin wound healing, non-diabetes rats; format: in vivo, rats (Wistar); conditions: ointment once a day, substance P 2.5 mg/ml, IGF-I 1 μg/ml, average of five
Experimental: (§1) Streptozotocin (70 mg/kg BW) dissolved in a citric acid buffer was injected intravenously into tails of rats (Wistar) under diethyl ether inhalation anesthesia to prepare diabetes rats (DM Rat) (five rats per group). An equal amount of the citric acid buffer alone was injected intravenously into rats (Wistar) to prepare non-diabetes rats (non DM Rat) (five rats per group). Four weeks after the intravenous injection, the back of all the rats was shaved with hair clippers under diethyl ether inhalation anesthesia, and hair was removed with cream for depilation. After 24 hours, five full-thickness (i.e. epidermis and dermis) wounds were made on back skin in equal intervals with a trepan for skin biopsy having a diameter of 5 mm. Confirming hemostasis, each ointment in Tables 2 and 3 was applied on the wound once a day. Just before applying the ointment once a day, the back wounds were photographed, and their areas were measured. […] The values in these tables are the average of five samples.

[3] = test system: full-thickness wounds on back skin of diabetes rats (DM Rat); assay: Action on skin wound healing, streptozotocin diabetes rats; format: in vivo, rats (Wistar); conditions: ointment once a day, substance P 2.5 mg/ml, IGF-I 1 μg/ml, average of five
Experimental: as §1

Row | Compound | Extension length of epidermis [1] | Epidermal extension compared with control (in words) [1] | Skin wound area of non-diabetes rat ([2]; 1st day) | Skin wound area of non-diabetes rat ([2]; After 2 days) | Skin wound area of non-diabetes rat ([2]; After 4 days) | Skin wound area of non-diabetes rat ([2]; After 6 days) | Skin wound area of diabetes rat ([3]; 1st day) | Skin wound area of diabetes rat ([3]; After 1 day) | Skin wound area of diabetes rat ([3]; After 4 days) | Skin wound area of diabetes rat ([3]; After 7 days) | Skin wound area of diabetes rat ([3]; After 10 days)
1 | CSCC[C@H](NC(=O)[C@H](CC(C)C)NC(=O)CNC(=O)[C@@H](N)Cc1ccccc1)C(N)=O [FGLM, Phe-Gly-Leu-Met-NH2] (H-FGLM-NH2) | 55.37 μm | almost as long as that in the case where the control is used |  |  |  |  |  |  |  |  | 
2 | CSCC[C@H](NC(=O)[C@H](CC(C)C)NC(=O)CNC(=O)[C@H](Cc1ccccc1)NC(=O)[C@H](Cc1ccccc1)NC(=O)[C@H](CCC(N)=O)NC(=O)[C@H](CCC(N)=O)NC(=O)[C@@H]1CCCN1C(=O)[C@H](CCCCN)NC(=O)[C@@H]1CCCN1C(=O)[C@@H](N)CCCNC(=N)N)C(N)=O [Substance P, Arg-Pro-Lys-Pro-Gln-Gln-Phe-Phe-Gly-Leu-Met-NH2] | 72.57 μm | almost as long as that in the case where the control is used | 100% | 88% | 74% | 59% | 100% | 90% | 77% | 68% | 44%
3 | IGF-I: insulin-like growth factor-I | 50.68 μm | almost as long as that in the case where the control is used | 100% | 81% | 66% | 43% | 100% | 89% | 64% | 52% | 27%
